Experimental data reported in ChEMBL document CHEMBL5291721, “A preclinical secondary pharmacology resource illuminates target-adverse drug reaction associations of marketed drugs” (Nat Commun, 2023).

Experiments:
B2 bradykinin receptor = molecular target: T1, B2 bradykinin receptor (Homo sapiens, UniProt P30411)
T1 sequence (P30411 whole entry): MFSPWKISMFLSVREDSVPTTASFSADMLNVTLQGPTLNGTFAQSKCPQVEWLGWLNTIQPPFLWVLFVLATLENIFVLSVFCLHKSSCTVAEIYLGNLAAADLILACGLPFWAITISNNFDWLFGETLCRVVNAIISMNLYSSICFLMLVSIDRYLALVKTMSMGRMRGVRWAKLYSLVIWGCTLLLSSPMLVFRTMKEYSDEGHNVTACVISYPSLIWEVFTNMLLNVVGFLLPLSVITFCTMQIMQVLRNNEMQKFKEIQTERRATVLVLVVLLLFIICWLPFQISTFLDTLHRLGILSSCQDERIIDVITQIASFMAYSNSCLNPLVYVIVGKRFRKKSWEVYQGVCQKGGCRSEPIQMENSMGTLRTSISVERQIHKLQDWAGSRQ

[1] = molecular target: T2, Muscarinic acetylcholine receptor M1 (Homo sapiens, UniProt P11229); type: functional
T2 sequence (P11229 whole entry): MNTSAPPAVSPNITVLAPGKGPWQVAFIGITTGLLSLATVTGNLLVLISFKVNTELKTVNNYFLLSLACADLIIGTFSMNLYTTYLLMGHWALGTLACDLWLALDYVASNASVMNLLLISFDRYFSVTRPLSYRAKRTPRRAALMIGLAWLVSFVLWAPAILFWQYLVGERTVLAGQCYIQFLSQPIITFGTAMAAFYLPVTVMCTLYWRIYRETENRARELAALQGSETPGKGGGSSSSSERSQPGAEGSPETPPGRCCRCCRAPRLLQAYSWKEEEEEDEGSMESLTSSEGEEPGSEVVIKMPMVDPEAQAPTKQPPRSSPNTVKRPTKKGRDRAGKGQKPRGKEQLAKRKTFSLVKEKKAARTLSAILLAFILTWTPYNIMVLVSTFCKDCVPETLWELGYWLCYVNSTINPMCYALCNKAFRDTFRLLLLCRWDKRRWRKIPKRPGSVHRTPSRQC

[2] = molecular target: Growth hormone secretagogue receptor type 1 (Homo sapiens, UniProt Q92847)
Histamine H2 receptor = Histamine H2 receptor (Homo sapiens, UniProt P25021); type: functional, cell-based
[3] = molecular target: T3, 5-hydroxytryptamine receptor 1A (Homo sapiens, UniProt P08908); type: functional, cell-based
T3 sequence (P08908 whole entry): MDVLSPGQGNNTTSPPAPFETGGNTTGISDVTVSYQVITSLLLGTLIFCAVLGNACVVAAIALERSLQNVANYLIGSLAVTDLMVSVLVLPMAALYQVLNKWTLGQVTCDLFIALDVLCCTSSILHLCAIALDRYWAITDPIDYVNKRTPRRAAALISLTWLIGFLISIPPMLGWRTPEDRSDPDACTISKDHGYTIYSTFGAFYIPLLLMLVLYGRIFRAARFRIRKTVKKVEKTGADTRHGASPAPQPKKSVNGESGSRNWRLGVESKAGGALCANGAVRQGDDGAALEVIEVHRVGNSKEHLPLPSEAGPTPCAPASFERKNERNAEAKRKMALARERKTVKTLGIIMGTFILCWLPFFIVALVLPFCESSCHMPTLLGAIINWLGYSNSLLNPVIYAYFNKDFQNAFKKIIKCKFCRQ

[4] = molecular target: Voltage-gated inwardly rectifying potassium channel KCNH2 (Homo sapiens, UniProt Q12809); type: functional; conditions: read-out: AC50
[5] = molecular target: Kappa-type opioid receptor (Homo sapiens, UniProt P41145)
[6] = molecular target: T4, Amine oxidase [flavin-containing] A (Homo sapiens, UniProt P21397); type: functional
T4 sequence (P21397 whole entry): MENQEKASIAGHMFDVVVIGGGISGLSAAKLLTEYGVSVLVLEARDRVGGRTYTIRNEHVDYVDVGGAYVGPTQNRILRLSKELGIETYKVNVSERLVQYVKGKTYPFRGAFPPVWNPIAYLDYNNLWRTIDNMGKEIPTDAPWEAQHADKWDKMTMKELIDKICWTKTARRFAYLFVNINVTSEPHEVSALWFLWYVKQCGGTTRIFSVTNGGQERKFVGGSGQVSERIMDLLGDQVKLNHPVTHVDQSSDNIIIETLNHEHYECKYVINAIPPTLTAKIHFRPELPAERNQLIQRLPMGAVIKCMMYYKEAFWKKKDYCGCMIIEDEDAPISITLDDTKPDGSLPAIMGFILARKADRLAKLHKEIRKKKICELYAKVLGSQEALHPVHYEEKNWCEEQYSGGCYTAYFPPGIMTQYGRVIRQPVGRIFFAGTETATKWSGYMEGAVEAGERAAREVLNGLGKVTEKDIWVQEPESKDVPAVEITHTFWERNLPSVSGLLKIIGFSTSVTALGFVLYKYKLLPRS

[7] = molecular target: cGMP-inhibited 3',5'-cyclic phosphodiesterase 3A (Homo sapiens, UniProt Q14432); type: functional
[8] = molecular target: T5, Alpha-1A adrenergic receptor (Homo sapiens, UniProt P35348); type: functional, cell-based
T5 sequence (P35348 whole entry): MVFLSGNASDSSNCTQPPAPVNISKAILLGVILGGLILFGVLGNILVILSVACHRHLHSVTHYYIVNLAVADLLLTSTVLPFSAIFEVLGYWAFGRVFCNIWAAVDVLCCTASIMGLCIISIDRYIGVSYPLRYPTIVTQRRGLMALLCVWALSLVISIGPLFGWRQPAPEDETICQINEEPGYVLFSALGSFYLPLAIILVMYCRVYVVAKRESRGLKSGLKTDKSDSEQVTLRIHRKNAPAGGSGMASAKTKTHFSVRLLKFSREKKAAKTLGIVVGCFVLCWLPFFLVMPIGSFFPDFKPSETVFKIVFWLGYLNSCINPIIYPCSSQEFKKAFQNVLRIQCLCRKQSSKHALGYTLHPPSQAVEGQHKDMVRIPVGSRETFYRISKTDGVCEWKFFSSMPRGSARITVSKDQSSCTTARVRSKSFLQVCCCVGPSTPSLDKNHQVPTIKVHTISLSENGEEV
Note: assay procedure not described here.

Chain of Voltage-gated inwardly rectifying potassium channel KCNH2 (Q12809 whole entry): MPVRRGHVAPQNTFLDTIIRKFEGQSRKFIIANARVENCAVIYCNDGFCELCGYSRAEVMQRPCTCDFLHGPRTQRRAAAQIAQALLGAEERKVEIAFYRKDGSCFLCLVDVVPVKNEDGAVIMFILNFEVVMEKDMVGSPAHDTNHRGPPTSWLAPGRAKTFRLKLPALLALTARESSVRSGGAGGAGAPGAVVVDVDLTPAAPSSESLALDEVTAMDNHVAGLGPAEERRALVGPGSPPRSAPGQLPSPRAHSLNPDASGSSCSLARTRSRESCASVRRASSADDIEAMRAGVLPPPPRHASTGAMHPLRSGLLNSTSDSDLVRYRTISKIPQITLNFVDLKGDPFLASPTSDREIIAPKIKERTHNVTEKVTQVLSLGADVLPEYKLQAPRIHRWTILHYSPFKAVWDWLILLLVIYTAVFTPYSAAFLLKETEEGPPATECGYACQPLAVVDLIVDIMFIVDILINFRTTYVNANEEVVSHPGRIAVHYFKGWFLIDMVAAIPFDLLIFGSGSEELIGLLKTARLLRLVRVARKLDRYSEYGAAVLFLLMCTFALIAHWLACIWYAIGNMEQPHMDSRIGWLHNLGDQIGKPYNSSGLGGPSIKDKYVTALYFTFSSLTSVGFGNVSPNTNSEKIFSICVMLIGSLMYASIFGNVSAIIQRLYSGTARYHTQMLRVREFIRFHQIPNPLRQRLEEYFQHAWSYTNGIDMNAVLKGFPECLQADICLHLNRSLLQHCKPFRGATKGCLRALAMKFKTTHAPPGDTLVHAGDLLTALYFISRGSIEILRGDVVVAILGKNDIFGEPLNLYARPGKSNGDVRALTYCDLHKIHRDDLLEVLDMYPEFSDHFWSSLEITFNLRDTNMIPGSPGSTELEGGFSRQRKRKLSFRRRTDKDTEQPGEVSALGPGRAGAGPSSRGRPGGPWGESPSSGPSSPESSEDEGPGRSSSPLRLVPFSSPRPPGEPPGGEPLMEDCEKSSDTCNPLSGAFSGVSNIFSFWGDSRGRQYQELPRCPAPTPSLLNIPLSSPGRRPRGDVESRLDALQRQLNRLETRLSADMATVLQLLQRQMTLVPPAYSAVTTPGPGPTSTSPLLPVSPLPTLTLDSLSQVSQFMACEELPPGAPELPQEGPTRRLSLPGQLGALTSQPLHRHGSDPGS
Chain of Growth hormone secretagogue receptor type 1 (Q92847 whole entry): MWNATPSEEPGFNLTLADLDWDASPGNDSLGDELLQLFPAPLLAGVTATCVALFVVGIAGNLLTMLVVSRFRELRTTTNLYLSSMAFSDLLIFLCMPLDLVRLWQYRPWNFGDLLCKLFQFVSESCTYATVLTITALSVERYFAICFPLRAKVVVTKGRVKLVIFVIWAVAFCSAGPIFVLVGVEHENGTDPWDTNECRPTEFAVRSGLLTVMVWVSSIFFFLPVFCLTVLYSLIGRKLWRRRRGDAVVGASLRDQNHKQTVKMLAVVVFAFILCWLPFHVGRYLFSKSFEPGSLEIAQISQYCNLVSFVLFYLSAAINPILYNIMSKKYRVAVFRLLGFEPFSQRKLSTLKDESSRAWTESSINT
Chain of Histamine H2 receptor (P25021 whole entry): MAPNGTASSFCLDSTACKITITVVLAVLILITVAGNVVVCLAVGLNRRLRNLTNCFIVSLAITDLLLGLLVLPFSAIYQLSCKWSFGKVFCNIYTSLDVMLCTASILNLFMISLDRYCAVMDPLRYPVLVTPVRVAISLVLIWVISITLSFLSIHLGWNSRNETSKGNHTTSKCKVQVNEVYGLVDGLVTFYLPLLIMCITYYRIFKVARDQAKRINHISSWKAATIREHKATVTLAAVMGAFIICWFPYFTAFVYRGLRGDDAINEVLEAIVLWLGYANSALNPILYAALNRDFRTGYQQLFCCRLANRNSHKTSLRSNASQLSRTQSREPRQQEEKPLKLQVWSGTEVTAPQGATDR
Chain of Kappa-type opioid receptor (P41145 whole entry): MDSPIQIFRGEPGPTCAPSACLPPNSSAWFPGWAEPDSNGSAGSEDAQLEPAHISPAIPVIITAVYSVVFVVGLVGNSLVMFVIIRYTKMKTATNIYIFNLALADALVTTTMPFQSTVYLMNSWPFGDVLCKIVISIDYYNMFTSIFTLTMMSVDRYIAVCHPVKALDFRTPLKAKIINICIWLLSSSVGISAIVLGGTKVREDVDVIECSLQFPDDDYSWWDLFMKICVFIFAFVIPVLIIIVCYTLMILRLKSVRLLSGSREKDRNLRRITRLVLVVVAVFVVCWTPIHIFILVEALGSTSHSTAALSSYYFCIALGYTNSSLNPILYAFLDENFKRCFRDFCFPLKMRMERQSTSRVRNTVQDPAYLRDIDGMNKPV
Chain of cGMP-inhibited 3',5'-cyclic phosphodiesterase 3A (Q14432 whole entry): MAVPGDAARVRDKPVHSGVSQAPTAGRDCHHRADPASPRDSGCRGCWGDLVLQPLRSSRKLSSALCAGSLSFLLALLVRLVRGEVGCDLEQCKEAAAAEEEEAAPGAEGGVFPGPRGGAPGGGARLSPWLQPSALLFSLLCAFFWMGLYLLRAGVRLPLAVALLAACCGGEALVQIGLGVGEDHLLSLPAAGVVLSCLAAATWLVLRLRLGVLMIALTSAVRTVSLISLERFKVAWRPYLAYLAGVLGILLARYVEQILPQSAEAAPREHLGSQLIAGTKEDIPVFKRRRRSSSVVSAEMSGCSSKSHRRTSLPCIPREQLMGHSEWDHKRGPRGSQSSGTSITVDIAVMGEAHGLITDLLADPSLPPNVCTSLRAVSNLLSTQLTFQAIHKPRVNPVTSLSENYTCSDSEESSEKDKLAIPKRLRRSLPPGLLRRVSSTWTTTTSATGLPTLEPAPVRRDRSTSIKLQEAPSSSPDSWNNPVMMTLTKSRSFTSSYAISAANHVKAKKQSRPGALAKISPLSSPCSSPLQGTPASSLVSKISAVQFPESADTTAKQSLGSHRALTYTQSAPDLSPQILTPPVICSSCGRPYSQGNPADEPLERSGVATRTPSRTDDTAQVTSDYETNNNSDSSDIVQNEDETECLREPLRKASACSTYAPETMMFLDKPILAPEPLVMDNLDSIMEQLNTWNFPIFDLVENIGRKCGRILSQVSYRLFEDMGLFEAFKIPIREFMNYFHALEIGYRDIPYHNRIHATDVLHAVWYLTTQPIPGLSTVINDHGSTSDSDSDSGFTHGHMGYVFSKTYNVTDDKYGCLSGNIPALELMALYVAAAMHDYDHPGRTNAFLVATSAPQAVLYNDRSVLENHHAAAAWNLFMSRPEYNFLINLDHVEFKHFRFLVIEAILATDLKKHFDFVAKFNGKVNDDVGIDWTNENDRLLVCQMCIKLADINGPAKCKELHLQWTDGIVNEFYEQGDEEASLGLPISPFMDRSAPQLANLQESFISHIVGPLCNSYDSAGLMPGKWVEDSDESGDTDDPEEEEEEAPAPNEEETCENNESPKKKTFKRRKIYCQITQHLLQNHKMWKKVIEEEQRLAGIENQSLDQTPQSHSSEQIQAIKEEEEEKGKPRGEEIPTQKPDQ

| Structure (SMILES) | AC50 (B2 bradykinin receptor) | AC50 [1] | AC50 [2] | AC50 (Histamine H2 receptor) | AC50 [3] | AC50 [4] | AC50 [5] | AC50 [6] | AC50 [7] | AC50 [8] |
| --- | --- | --- | --- | --- | --- | --- | --- | --- | --- | --- |
| CC(=O)OCC(=O)[C@@]12OC3(CCCC3)O[C@@H]1C[C@H]1[C@@H]3CCC4=CC(=O)C=C[C@]4(C)[C@@]3(F)[C@@H](O)C[C@@]12C [AMCINONIDE] | > 10 µM | > 10 µM | > 10 µM | > 10 µM | > 10 µM | 17.3 µM | > 10 µM | > 10 µM | > 30 µM |  |
| CN1C(=O)CC(=O)N(c2ccccc2)c2cc(Cl)ccc21 [CLOBAZAM] | > 10 µM | > 10 µM | > 10 µM | > 10 µM | > 10 µM | > 30 µM | 14.1 µM | > 10 µM | > 30 µM |  |
| [H]/N=C(/N)c1ccc(NCc2nc3cc(C(=O)N(CCC(=O)O)c4ccccn4)ccc3n2C)cc1 [DABIGATRAN] | > 30 µM | > 30 µM | > 30 µM | > 30 µM |  | > 30 µM | > 30 µM | > 30 µM | > 30 µM | > 30 µM |
| CCCCCCCCCCCC[N+](C)(C)CCOc1ccccc1 [DOMIPHEN] | > 30 µM | 8.9 µM | 5.7 µM | > 30 µM |  | 1.7 µM | 3.6 µM | 28 µM | > 30 µM | > 30 µM |
| C#CC1(OC(N)=O)CCCCC1 [ETHINAMATE] | > 10 µM | > 10 µM | > 10 µM | > 10 µM | > 10 µM | > 30 µM | > 10 µM | > 10 µM | > 30 µM |  |
| CCC1(C2=CCCCCC2)C(=O)NC(=O)NC1=O [HEPTABARBITAL] | > 10 µM | > 10 µM | > 10 µM | > 10 µM |  | > 30 µM | > 10 µM | > 10 µM | > 30 µM | > 30 µM |
| O=C(CCCCC(=O)Nc1c(I)cc(I)c(C(=O)O)c1I)Nc1c(I)cc(I)c(C(=O)O)c1I [IODIPAMIDE] | > 10 µM | > 10 µM | > 10 µM | > 30 µM | > 10 µM | > 30 µM | > 10 µM | > 10 µM | > 30 µM |  |
| CC(C)[N+](C)(CCC(C(N)=O)(c1ccccc1)c1ccccc1)C(C)C [ISOPROPAMIDE] | > 10 µM | 0.013 µM | > 10 µM | > 10 µM | > 10 µM | 3.3 µM | > 10 µM | > 10 µM | > 30 µM |  |
| COc1ccc(C(=O)NCc2ccc(OCCN(C)C)cc2)cc1OC [ITOPRIDE] | > 30 µM | > 30 µM | > 30 µM | > 30 µM |  | > 30 µM | > 30 µM | > 30 µM | > 30 µM | > 30 µM |
| CN1CC[C@]23CCCC[C@H]2[C@H]1Cc1ccc(O)cc13 [LEVORPHANOL] | > 10 µM | > 30 µM | > 10 µM | > 30 µM | > 10 µM | 13.4 µM | 5.85 µM | > 30 µM | > 30 µM |  |
| CC/C=C\C/C=C\C/C=C\CCCCCCCC(=O)O [LINOLENIC ACID] | > 30 µM | > 30 µM | > 30 µM | > 30 µM |  | > 30 µM | > 30 µM | > 30 µM | > 30 µM | > 30 µM |
| CC1=CC(=O)c2ccccc2C1=O [MENADIONE] | > 10 µM | > 30 µM | > 10 µM | > 30 µM | > 10 µM | > 30 µM | > 10 µM | 17 µM | > 30 µM |  |
| O=C(OCCN1CCOCC1)c1cccnc1Nc1cccc(C(F)(F)F)c1 [MORNIFLUMATE] | > 30 µM | > 30 µM | > 30 µM | > 30 µM |  | 4.35 µM | 24 µM | > 30 µM | > 30 µM | > 30 µM |
| CCCCCCCCOc1ccccc1C(=O)Nc1ccc(C(=O)OCC[N+](C)(CC)CC)cc1 [OTILONIUM BROMIDE] | > 30 µM | 1.3 µM | 7.6 µM | > 30 µM |  | 0.66 µM | 3.4 µM | > 30 µM | 20 µM | 12 µM |
| CN1CCCN=C1COC(=O)C(O)(c1ccccc1)C1CCCCC1 (centres undefined) [OXYPHENCYCLIMINE] | > 10 µM | 0.019 µM | > 10 µM | > 10 µM | > 10 µM | 3.77 µM | > 10 µM | > 10 µM | > 30 µM |  |
| CN1CCC2=C(C1)C(c1ccccc1)c1ccccc12 (centres undefined) [PHENINDAMINE] | > 10 µM | > 10 µM | > 10 µM | > 10 µM | > 10 µM | > 30 µM | > 10 µM | > 10 µM | > 30 µM |  |
| CC(Cc1ccccc1)NCCC(c1ccccc1)c1ccccc1 (centres undefined) [PRENYLAMINE] | > 30 µM | > 10 µM | 3 µM | > 30 µM |  | 0.736 µM | 0.382 µM | > 10 µM | > 30 µM | > 30 µM |
| Cc1nc2ccc(CN(C)c3ccc(C(=O)N[C@@H](CCC(=O)O)C(=O)O)s3)cc2c(=O)[nH]1 [RALTITREXED] | > 30 µM | > 30 µM | > 30 µM | > 30 µM |  | > 30 µM | > 30 µM | > 30 µM | > 30 µM | > 30 µM |
| C#CCN[C@@H]1CCc2ccccc21 [RASAGILINE] | > 30 µM | > 30 µM | > 30 µM | > 30 µM | > 30 µM | > 30 µM | > 30 µM |  | > 30 µM |  |
| COc1ccc(C(=O)N2CCN(c3ccc4c(c3)CCC(=O)N4)CC2)cc1OC [VESNARINONE] | > 30 µM | > 30 µM | > 30 µM | > 30 µM |  | > 30 µM | > 30 µM | > 30 µM | 8.46 µM | > 30 µM |
